Laboratory results reported in patent US20070287689A1, “Therapeutic And/Or Preventive Agents For Chronic Skin Diseases” (KYOWA HAKKO KOGYO CO., LTD., priority 2004, published 2007).
Marks after values point to notes of the source that are not given here.

How the values were obtained:
[1] = system: chronic dermatitis models; conditions: Non-patent Document 2; cited from earlier work
[2] = system: delayed-type allergic reaction in the skin; conditions: animal model; Non-patent Document 1; cited from earlier work
[3] = system: oxazolone-induced ear swelling; test: Inhibitory effects on oxazolone-induced ear swelling in mice (Test Example 2); type: in vivo; conditions: dose 1.2 μg/site, 0.03 mg/mL in acetone applied to inner and outer side of the ear 3 hours before and 2 hours after inducing the reaction, ear thickness 24 hours after induction, BALB/c mice
Method: Six-week-old BALB/c mice (male, Charles River Japan, Inc.) were purchased. […] The mice were placed in plastic cages (6 mice per cage) in a breeding room which was kept at a room temperature (19 to 25° C.) and a humidity of 30 to 70% and was illuminated for 12 hours a day (from 7:00 a.m. to 7:00 p.m.). The mice were allowed to freely intake commercially available pellets and water.
As an antigen solution, Oxazolone (Sigma-Aldrich) was dissolved in acetone (Kanto Kagaku) to prepare 0.5 w/v % of oxazolone-acetone solution. BALB/c mice were each applied with 100 μL of the antigen solution to the shaved abdomen for sensitization. Mice were shaved on abdomen on the previous day of the sensitization. […] Ear thickness was measured with a dial thickness gauge (Ozaki Seisakusho) just before and 24 hours after inducing the reaction, and the difference in the thickness was used as an indication of ear swelling. The inhibition ratio (%) against ear swelling was calculated using the following: Inhibition ratio (%)=[{(value in positive control group)−(value in test compound administration group)}/{(value in positive control group)−(value in negative control group)}]×100 Test compound administration group: Compound (I) administration group, prednisolone administration group or combined administration group

Row | SMILES | Therapeutic effects on chronic dermatitis models [1] | Effect on delayed-type allergic reaction in the skin [2] | Inhibition Ratio (ear swelling) [3] [%] | Inhibition Ratio (ear swelling) ([3]; listed as Predonisolone) [%***]
1 | COc1ccc([C@]2(C#N)CC[C@@H](C(=O)O)CC2)cc1OC1CCCC1 [SB207499] | exhibit therapeutic effects | inhibit a delayed-type allergic reaction in the skin |  | 
2 | C[C@]12C=CC(=O)C=C1CC[C@@H]1[C@@H]2[C@@H](O)C[C@@]2(C)[C@H]1CC[C@]2(O)C(=O)CO [prednisolone] |  |  | 18 | 18
